Experimental data reported in patent US20250382273A1 (INSTITUT NATIONAL DE LA SANTE ET DE LA RECHERCHE MEDICALE, priority 2022, published 2025).

system: M. tuberculosis H37Rv_gfp; assay type: cell-based, Mycobacterium tuberculosis; conditions: in combination with delamanid 4 ng·mL−1, 5 days at 37° C.

Structure (SMILES)	EC50 [nM]
Cc1ccc2nc(N3C(=O)[C@@H]4[C@H](C3=O)[C@@H]3C=C[C@H]4C3)sc2c1 [Example 2, (1R,2S,6R,7S)-4-(6-methyl-1,3-benzothiazol-2-yl)-4-azatricyclo[5.2.1.02,6]dec-8-ene-3,5-dione]	420
Cc1ccc2nc(NC(=O)[C@@H]3C4C=CC(C4)[C@@H]3C(=O)O)sc2c1 (mixture of isomers) [Example 1, 3-[(6-methyl-1,3-benzothiazol-2-yl)carbamoyl]bicyclo[2.2.1]hept-5-ene-2-carboxylic acid]	310
O=C(Nc1nc2ccc(Oc3ccccc3)cc2s1)[C@@H]1C2C=CC(C2)[C@@H]1C(=O)O (stereo partly drawn) [Example 18, [2-hydroxy-1,1-bis(hydroxymethyl)ethyl]ammonium: (1R,2S,3R,4S)-3-[(6-phenoxy-1,3-benzothiazol-2-yl)carbamoyl]bicyclo[2.2.1]hept-5-ene-2-carboxylate]	160

system: M. tuberculosis H37Rv_gfp; assay type: cell-based, Mycobacterium tuberculosis; conditions: in combination with pretomanid 20 ng·mL−1; 5 days at 37° C.; […]; read-out: EC50 H37Rv_gfp

Structure (SMILES)	EC50 [nM]
Cc1ccc2nc(N3C(=O)[C@@H]4[C@H](C3=O)[C@@H]3C=C[C@H]4C3)sc2c1 [Example 2, (1R,2S,6R,7S)-4-(6-methyl-1,3-benzothiazol-2-yl)-4-azatricyclo[5.2.1.02,6]dec-8-ene-3,5-dione]	< 1000
Cc1ccc2nc(NC(=O)[C@@H]3C4C=CC(C4)[C@@H]3C(=O)O)sc2c1 (mixture of isomers) [Example 1, 3-[(6-methyl-1,3-benzothiazol-2-yl)carbamoyl]bicyclo[2.2.1]hept-5-ene-2-carboxylic acid]	1000 to 5000
O=C1C2C3C=CC(C3)C2C(=O)N1c1nc2ccc(-c3ccccc3C(F)(F)F)cc2s1 [Example 58, (1R,2S,6R,7S)-4-[6-[[2-(trifluoromethyl)phenyl]-1,3-benzothiazol-2-yl]-4-azatricyclo [5.2.1.02,6]dec-8-ene-3,5-dione]	5000 to 10000
O=C(Nc1nc2ccc(C#Cc3ccccc3)cc2s1)[C@@H]1C2C=CC(C2)[C@@H]1C(=O)O (some centres unmarked) [Example 77, 3-[[6-(2-phenylethynyl)-1,3-benzothiazol-2-yl]carbamoyl]bicyclo[2.2.1]hept-5-ene-2-carboxylic acid]	< 1000
O=C1[C@@H]2C3C=CC(C3)[C@@H]2C(=O)N1c1nc2ccc(Nc3ccc(F)cn3)cc2s1 [Example 87, 4-[6-[(5-fluoro-2-pyridyl)amino]-1,3-benzothiazol-2-yl]-4-azatricyclo[5.2.1.02,6]dec-8-ene-3,5-dione]	< 1000
O=C(Nc1nc2ccc(-c3ccc(OC(F)(F)F)cc3)cc2s1)[C@@H]1C2C=CC(C2)[C@@H]1C(=O)O (some centres unmarked) [Example 62, 3-[[6-[4-(trifluoromethoxy)phenyl]-1,3-benzothiazol-2-yl]carbamoyl]bicyclo[2.2.1]hept-5-ene-2-carboxylic acid]	< 1000
O=C(Nc1nc2ccc(Oc3ccccc3)cc2s1)[C@@H]1C2C=CC(C2)[C@@H]1C(=O)O (stereo partly drawn) [Example 18, [2-hydroxy-1,1-bis(hydroxymethyl)ethyl]ammonium: (1R,2S,3R,4S)-3-[(6-phenoxy-1,3-benzothiazol-2-yl)carbamoyl]bicyclo[2.2.1]hept-5-ene-2-carboxylate]	< 1000
O=C(Nc1nc2ccc(C3CCCCC3)cc2s1)[C@@H]1C2C=CC(C2)[C@@H]1C(=O)O (some centres unmarked) [Example 52, 3-[(6-cyclohexyl-1,3-benzothiazol-2-yl)carbamoyl]bicyclo[2.2.1]hept-5-ene-2-carboxylic acid]	< 1000
O=C(Nc1nc2cc(Br)ccc2s1)[C@@H]1C2C=CC(C2)[C@@H]1C(=O)O (some centres unmarked) [Example 48, 3-[(5-bromo-1,3-benzothiazol-2-yl)carbamoyl]bicyclo[2.2.1]hept-5-ene-2-carboxylic acid]	1000 to 5000
O=C(Nc1nc2ccc(Oc3ccc(C(F)(F)F)cc3)cc2s1)[C@@H]1C2C=CC(C2)[C@@H]1C(=O)O (some centres unmarked) [Example 22, 3-[[6-[4-(trifluoromethyl)phenoxy]-1,3-benzothiazol-2-yl]carbamoyl]bicyclo[2.2.1]hept-5-ene-2-carboxylic acid]	1000 to 5000
O=C1[C@@H]2C3C=CC(C3)[C@@H]2C(=O)N1c1nc2ccc(Nc3ccc(C(F)(F)F)cn3)cc2s1 [Example 95]	< 1000
O=C1[C@@H]2C3C=CC(C3)[C@@H]2C(=O)N1c1nc2ccc(Nc3cccc(F)n3)cc2s1 [Example 89, 4-[6-[(6-fluoro-2-pyridyl)amino]-1,3-benzothiazol-2-yl]-4-azatricyclo[5.2.1.02,6]dec-8-ene-3,5-dione]	1000 to 5000
O=C(Nc1nc2ccc(Oc3ccc(C(F)(F)F)cn3)cc2s1)[C@@H]1C2C=CC(C2)[C@@H]1C(=O)O (some centres unmarked) [Example 35, 3-[[6-[[5-(trifluoromethyl)-2-pyridyl]oxy]-1,3-benzothiazol-2-yl]carbamoyl]bicyclo[2.2.1]hept-5-ene-2-carboxylic acid]	1000 to 5000
C#Cc1ccc2nc(N3C(=O)[C@@H]4[C@H](C3=O)[C@@H]3C=C[C@H]4C3)sc2c1 [Example 72, (1R,2S,6R,7S)-4-(6-ethynyl-1,3-benzothiazol-2-yl)-4-azatricyclo[5.2.1.02,6]dec-8-ene-3,5-dione]	1000 to 5000
CCc1ccc2nc(NC(=O)[C@@H]3C4C=CC(C4)[C@@H]3C(=O)O)sc2c1 (some centres unmarked) [Example 11, 3-[(6-ethyl-1,3-benzothiazol-2-yl)carbamoyl]bicyclo[2.2.1]hept-5-ene-2-carboxylic acid]	< 1000
O=C(Nc1nc2ccc(-c3ccc4ncccc4c3)cc2s1)[C@@H]1C2C=CC(C2)[C@@H]1C(=O)O (some centres unmarked) [Example 81, 3-[[6-(6-quinolyl)-1,3-benzothiazol-2-yl]carbamoyl]bicyclo[2.2.1]hept-5-ene-2-carboxylic acid]	1000 to 5000
O=C(Nc1nc2ccc(F)cc2s1)[C@@H]1C2C=CC(C2)[C@@H]1C(=O)O (some centres unmarked) [Example 42, 3-[(6-fluoro-1,3-benzothiazol-2-yl)carbamoyl]bicyclo[2.2.1]hept-5-ene-2-carboxylic acid]	1000 to 5000
O=C(Nc1nc2ccc(-c3ccc(N4CCCCC4)cc3)cc2s1)[C@@H]1C2C=CC(C2)[C@@H]1C(=O)O (some centres unmarked) [Example 100]	< 1000

Structure (SMILES)	EC50 [nM]
O=C1[C@@H]2[C@H](C(=O)N1c1nc3ccc(Oc4ccc(C(F)(F)F)cn4)cc3s1)[C@@H]1C=C[C@H]2C1 [Example 36, (1R,2S,6R,7S)-4-[6-[[5-(trifluoromethyl)-2-pyridyl]oxy]-1,3-benzothiazol-2-yl]-4-azatricyclo[5.2.1.02,6]dec-8-ene-3,5-dione]	< 1000
COC(=O)c1ccc2nc(NC(=O)[C@@H]3C4C=CC(C4)[C@@H]3C(=O)O)sc2c1 (some centres unmarked) [Example 41, 3-[(6-methoxycarbonyl-1,3-benzothiazol-2-yl)carbamoyl]bicyclo[2.2.1]hept-5-ene-2-carboxylic acid]	1000 to 5000
O=C(Nc1nc2ccc(Cl)cc2s1)[C@@H]1C2C=CC(C2)[C@@H]1C(=O)O (some centres unmarked) [Example 46, 3-[(6-chloro-1,3-benzothiazol-2-yl)carbamoyl]bicyclo[2.2.1]hept-5-ene-2-carboxylic acid]	1000 to 5000
CCOc1ccc2nc(NC(=O)[C@@H]3C4C=CC(C4)[C@@H]3C(=O)O)sc2c1 (some centres unmarked) [Example 7, 3-[(6-ethoxy-1,3-benzothiazol-2-yl)carbamoyl]bicyclo[2.2.1]hept-5-ene-2-carboxylic acid]	< 1000
O=C(Nc1nc2ccc(C(F)(F)F)cc2s1)[C@@H]1C2C=CC(C2)[C@@H]1C(=O)O (some centres unmarked) [Example 43, 3-[[6-(trifluoromethyl)-1,3-benzothiazol-2-yl]carbamoyl]bicyclo[2.2.1]hept-5-ene-2-carboxylic acid]	< 1000
O=C1[C@@H]2[C@H](C(=O)N1c1nc3ccc(-c4ccc(C(F)(F)F)nc4)cc3s1)[C@@H]1C=C[C@H]2C1 [Example 67, (1R,2S,6R,7S)-4-[6-[6-(trifluoromethyl)-3-pyridyl]-1,3-benzothiazol-2-yl]-4-azatricyclo [5.2.1.02,6]dec-8-ene-3,5-dione]	1000 to 5000
O=C(Nc1nc2ccc(Nc3ccc(C(F)(F)F)cn3)cc2s1)[C@@H]1C2C=CC(C2)[C@@H]1C(=O)O (some centres unmarked) [Example 96, 3-[[6-[[5-(trifluoromethyl)-2-pyridyl]amino]-1,3-benzothiazol-2-yl]carbamoyl]bicyclo[2.2.1]hept-5-ene-2-carboxylic acid]	1000 to 5000
O=C(Nc1nc2ccc(Oc3ccccc3)cc2s1)[C@@H]1C2C=CC(C2)[C@@H]1C(=O)O (some centres unmarked) [Example 17, 3-[(6-phenoxy-1,3-benzothiazol-2-yl)carbamoyl]bicyclo[2.2.1]hept-5-ene-2-carboxylic acid]	< 1000
O=C1[C@@H]2[C@H](C(=O)N1c1nc3ccc(OC(F)(F)F)cc3s1)[C@@H]1C=C[C@H]2C1 [Example 45, (1R,2S,6R,7S)-4-[6-(trifluoromethoxy)-1,3-benzothiazol-2-yl]-4-azatricyclo[5.2.1.02,6]dec-8-ene-3,5-dione]	1000 to 5000
O=C(Nc1nc2ccc(-c3ccc(C(F)(F)F)cc3)cc2s1)[C@@H]1C2C=CC(C2)[C@@H]1C(=O)O (some centres unmarked) [Example 60, 3-[[6-[4-(trifluoromethyl)phenyl]-1,3-benzothiazol-2-yl]carbamoyl]bicyclo[2.2.1]hept-5-ene-2-carboxylic acid]	< 1000
O=C(Nc1nc2ccc(-c3ccc(Cl)cc3)cc2s1)[C@@H]1C2C=CC(C2)[C@@H]1C(=O)O (some centres unmarked) [Example 55, 3-[[6-(4-chlorophenyl)-1,3-benzothiazol-2-yl]carbamoyl]bicyclo[2.2.1]hept-5-ene-2-carboxylic acid]	< 1000
COc1ccc2sc(NC(=O)[C@@H]3C4C=CC(C4)[C@@H]3C(=O)O)nc2c1 (some centres unmarked) [Example 5, 3-[(5-methoxy-1,3-benzothiazol-2-yl)carbamoyl]bicyclo[2.2.1]hept-5-ene-2-carboxylic acid]	1000 to 5000
O=C(Nc1nc2ccc(-c3ccncc3)cc2s1)[C@@H]1C2C=CC(C2)[C@@H]1C(=O)O (some centres unmarked) [Example 64, 3-[[6-(4-pyridyl)-1,3-benzothiazol-2-yl]carbamoyl]bicyclo[2.2.1]hept-5-ene-2-carboxylic acid]	1000 to 5000
Cc1ccnc(Oc2ccc3nc(N4C(=O)[C@@H]5C6C=CC(C6)[C@@H]5C4=O)sc3c2)c1 [Example 30]	< 1000
O=C(Nc1nc2ccc(Oc3ncccc3C(F)(F)F)cc2s1)[C@@H]1C2C=CC(C2)[C@@H]1C(=O)O (some centres unmarked) [Example 25, 3-[[6-[[3-(trifluoromethyl)-2-pyridyl]oxy]-1,3-benzothiazol-2-yl]carbamoyl]bicyclo[2.2.1]hept-5-ene-2-carboxylic acid]	1000 to 5000
O=C(Nc1nc2ccc(-c3ccccc3)cc2s1)[C@@H]1C2C=CC(C2)[C@@H]1C(=O)O (some centres unmarked) [Example 51]	< 1000
O=C(Nc1nc2ccc(Nc3ccc(OC(F)(F)F)cn3)cc2s1)[C@@H]1C2C=CC(C2)[C@@H]1C(=O)O (some centres unmarked) [Example 93, 3-[[6-[[5-(trifluoromethoxy)-2-pyridyl]amino]-1,3-benzothiazol-2-yl]carbamoyl]bicyclo[2.2.1]hept-5-ene-2-carboxylic acid]	< 1000

same assay, conditions: in combination with pretomanid, unit inferred; read-out: average EC50 H37Rv_gfp

Structure (SMILES)	EC50 [nM]
O=C1[C@@H]2[C@H](C(=O)N1c1nc3ccc(Oc4ccc(C(F)(F)F)cn4)cc3s1)[C@@H]1C=C[C@H]2C1 [Example 36, (1R,2S,6R,7S)-4-[6-[[5-(trifluoromethyl)-2-pyridyl]oxy]-1,3-benzothiazol-2-yl]-4-azatricyclo[5.2.1.02,6]dec-8-ene-3,5-dione]	220
CCOc1ccc2nc(NC(=O)[C@@H]3C4C=CC(C4)[C@@H]3C(=O)O)sc2c1 (some centres unmarked) [Example 7, 3-[(6-ethoxy-1,3-benzothiazol-2-yl)carbamoyl]bicyclo[2.2.1]hept-5-ene-2-carboxylic acid]	150
O=C(Nc1nc2ccc(-c3ccc(C(F)(F)F)cc3)cc2s1)[C@@H]1C2C=CC(C2)[C@@H]1C(=O)O (some centres unmarked) [Example 60, 3-[[6-[4-(trifluoromethyl)phenyl]-1,3-benzothiazol-2-yl]carbamoyl]bicyclo[2.2.1]hept-5-ene-2-carboxylic acid]	50
